In paper PMC12472322, “Structure–Activity Relationship Study of 3-Alkynyl-6-aryl-isothiazolo[4,3-b]pyridines as Dual Inhibitors of the Lipid Kinases PIKfyve and PIP4K2C” (Pharmaceuticals, 2025):

Key:
[1] = target: T1, PIKfyve (Homo sapiens, UniProt Q9Y2I7); assay: biochemical PIKfyve mobility shift assay (Nanosyn)
T1 construct: purchased Nanosyn, Santa Clara, CA, USA (contract assay service)

[2] = system: VEEV (TC-83); assay: microbe, parasite or virus in culture; type: cell-based; details: Venezuelan equine encephalitis virus, U-87 MG, 18 h, read-out: VEEV (TC-83) EC50
[3] = cell viability (AlamarBlue) in SARS-CoV-2-infected Vero E6/TMPRSS2 cells; type: cell-based; details: African green monkey, Vero E6/TMPRSS2 cells infected with SARS-CoV-2, half-maximal cytotoxic concentration, read-out: SARS-CoV2 CC50
[4] = system: U-87 MG cells; details: half-maximal cytotoxic concentration
[5] = system: SARS-CoV-2; assay: microbe, parasite or virus in culture; type: cell-based, severe acute respiratory syndrome coronavirus 2; details: Severe acute respiratory syndrome coronavirus 2, VeroE6/TMPRSS2, 24 h; read-out: SARS-CoV2 EC50

T1 sequence (Q9Y2I7 whole entry): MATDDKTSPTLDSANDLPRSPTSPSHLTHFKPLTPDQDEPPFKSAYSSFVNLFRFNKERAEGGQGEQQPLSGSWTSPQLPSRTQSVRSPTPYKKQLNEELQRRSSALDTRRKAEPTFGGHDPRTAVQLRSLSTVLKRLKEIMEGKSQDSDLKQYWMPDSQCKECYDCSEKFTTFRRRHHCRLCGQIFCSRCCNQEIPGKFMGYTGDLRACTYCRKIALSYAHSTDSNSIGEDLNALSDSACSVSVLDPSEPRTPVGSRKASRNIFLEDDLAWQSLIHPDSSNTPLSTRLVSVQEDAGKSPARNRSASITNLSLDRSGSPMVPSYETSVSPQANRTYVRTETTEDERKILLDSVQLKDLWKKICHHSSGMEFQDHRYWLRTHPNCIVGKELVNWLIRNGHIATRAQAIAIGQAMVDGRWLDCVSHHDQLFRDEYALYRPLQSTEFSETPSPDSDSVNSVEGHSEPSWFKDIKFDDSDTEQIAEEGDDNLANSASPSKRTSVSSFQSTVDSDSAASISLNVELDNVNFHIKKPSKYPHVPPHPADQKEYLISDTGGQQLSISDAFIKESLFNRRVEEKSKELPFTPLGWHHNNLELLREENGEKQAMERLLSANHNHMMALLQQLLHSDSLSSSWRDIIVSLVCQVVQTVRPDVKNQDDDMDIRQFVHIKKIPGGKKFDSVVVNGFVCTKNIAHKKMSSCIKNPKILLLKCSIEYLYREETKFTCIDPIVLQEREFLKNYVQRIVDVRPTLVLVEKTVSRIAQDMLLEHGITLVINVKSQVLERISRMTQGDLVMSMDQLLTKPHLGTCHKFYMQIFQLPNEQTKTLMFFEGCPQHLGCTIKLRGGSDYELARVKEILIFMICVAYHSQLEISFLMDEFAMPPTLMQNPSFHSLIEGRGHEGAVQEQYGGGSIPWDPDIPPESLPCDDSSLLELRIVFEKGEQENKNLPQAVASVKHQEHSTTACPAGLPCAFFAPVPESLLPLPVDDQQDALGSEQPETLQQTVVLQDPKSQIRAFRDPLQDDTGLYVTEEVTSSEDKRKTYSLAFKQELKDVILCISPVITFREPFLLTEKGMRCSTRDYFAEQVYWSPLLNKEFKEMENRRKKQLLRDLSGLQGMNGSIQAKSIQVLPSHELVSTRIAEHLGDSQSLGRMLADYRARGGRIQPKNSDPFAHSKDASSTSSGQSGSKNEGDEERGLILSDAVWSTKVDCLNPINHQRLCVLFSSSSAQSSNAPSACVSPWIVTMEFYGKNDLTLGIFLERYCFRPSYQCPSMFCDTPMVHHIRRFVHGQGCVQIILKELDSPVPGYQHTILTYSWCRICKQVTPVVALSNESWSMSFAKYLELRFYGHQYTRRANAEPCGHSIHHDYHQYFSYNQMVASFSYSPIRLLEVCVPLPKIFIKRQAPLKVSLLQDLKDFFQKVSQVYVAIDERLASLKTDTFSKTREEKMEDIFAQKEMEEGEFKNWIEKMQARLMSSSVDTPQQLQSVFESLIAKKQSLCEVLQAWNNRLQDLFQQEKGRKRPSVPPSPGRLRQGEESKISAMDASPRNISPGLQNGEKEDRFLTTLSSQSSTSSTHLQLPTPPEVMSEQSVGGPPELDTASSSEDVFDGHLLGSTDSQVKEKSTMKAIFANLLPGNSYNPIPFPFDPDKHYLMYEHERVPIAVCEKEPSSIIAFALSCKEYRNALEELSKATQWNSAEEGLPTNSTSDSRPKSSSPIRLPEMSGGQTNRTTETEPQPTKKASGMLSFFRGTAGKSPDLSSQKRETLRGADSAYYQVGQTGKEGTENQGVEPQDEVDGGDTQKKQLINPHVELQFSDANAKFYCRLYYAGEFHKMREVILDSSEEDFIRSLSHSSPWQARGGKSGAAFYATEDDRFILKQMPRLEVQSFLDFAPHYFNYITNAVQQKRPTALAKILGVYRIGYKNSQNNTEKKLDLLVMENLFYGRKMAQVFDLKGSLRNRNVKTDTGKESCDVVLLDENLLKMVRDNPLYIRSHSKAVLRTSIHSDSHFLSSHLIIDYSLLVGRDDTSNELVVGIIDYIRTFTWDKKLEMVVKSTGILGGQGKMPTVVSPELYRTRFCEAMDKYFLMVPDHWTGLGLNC

| SMILES | IC50 ([1]; Tables 1-4 and text) [nM] | other results |
| --- | --- | --- |
| C(#Cc1snc2cccnc12)c1cccnc1 [Compound 2a, 3-(Pyridin-3-ylethynyl)isothiazolo[4,3-b]pyridine] | 1150 |  |
| Cc1ccccc1-c1cnc2c(C#Cc3cccnc3)snc2c1 [Compound 3c, 3-(Pyridin-3-ylethynyl)-6-(2-tolyl)isothiazolo[4,3-b]pyridine] | 8.2 | IC50 ([1]; values given in text in nM): 8 nM |
| CN(C)c1ccc(-c2cnc3c(C#Cc4cccnc4)snc3c2)cc1 [Compound 3d, N,N-Dimethyl-4-(3-(pyridin-3-ylethynyl)isothiazolo[4,3-b]pyridin-6-yl)aniline] | 2.2 |  |
| CC(C)Oc1ccc(-c2cnc3c(C#Cc4cccnc4)snc3c2)cc1 [Compound 3e, 6-(4-Isopropoxyphenyl)-3-(pyridin-3-ylethynyl)isothiazolo[4,3-b]pyridine] | 20 |  |
| Fc1ccccc1-c1cnc2c(C#Cc3cccnc3)snc2c1 [Compound 3h, 6-(2-Fluorophenyl)-3-(pyridin-3-ylethynyl)isothiazolo[4,3-b]pyridine] | 8.8 | EC50 [2]: 6.93 ± 0.13 µM; CC50 [3]: > 20 µM; VEEV (TC-83) CC50 [4]: >20 µM; EC50 [5]: 1.34 ± 0.5 µM |
| COCCOc1ccc(-c2cnc3c(C#Cc4cccnc4)snc3c2)cc1 [Compound 3j, 6-(4-(2-Methoxyethoxy)phenyl)-3-(pyridin-3-ylethynyl)isothiazolo[4,3-b]pyridine] | 2.1 |  |
| CCNC(=O)c1ccc(-c2cnc3c(C#Cc4cccnc4)snc3c2)cc1 [Compound 3n, N-Ethyl-4-(3-(pyridin-3-ylethynyl)isothiazolo[4,3-b]pyridin-6-yl)benzamide] | 3.5 |  |
| CN(C)C(=O)c1ccc(-c2cnc3c(C#Cc4cccnc4)snc3c2)cc1 [Compound 3o, N,N-Dimethyl-4-(3-(pyridin-3-ylethynyl)isothiazolo[4,3-b]pyridin-6-yl)benzamide] | 25 |  |
| O=C(c1ccc(-c2cnc3c(C#Cc4cccnc4)snc3c2)cc1)N1CCCC1 [Compound 3p, (4-(3-(Pyridin-3-ylethynyl)isothiazolo[4,3-b]pyridin-6-yl)phenyl)(pyrrolidin-1-yl)methanone] | 20 |  |
| CN(C)C(=O)c1cccc(-c2cnc3c(C#Cc4cccnc4)snc3c2)c1 [Compound 3q, N,N-Dimethyl-3-(3-(pyridin-3-ylethynyl)isothiazolo[4,3-b]pyridin-6-yl)benzamide] | 18 |  |
| O=C(c1cccc(-c2cnc3c(C#Cc4cccnc4)snc3c2)c1)N1CCCC1 [Compound 3r, (3-(3-(Pyridin-3-ylethynyl)isothiazolo[4,3-b]pyridin-6-yl)phenyl)(pyrrolidin-1-yl)methanone] | 6.1 |  |
| C(#Cc1snc2cc(-c3ccc(OCCN4CCOCC4)cc3)cnc12)c1cccnc1 [Compound 5a, 4-(2-(4-(3-(Pyridin-3-ylethynyl)isothiazolo[4,3-b]pyridin-6-yl)phenoxy)ethyl)morpholine] | 7.1 | EC50 [2]: 0.31 ± 0.01 µM; CC50 [3]: > 20 µM; VEEV (TC-83) CC50 [4]: >10 µM; EC50 [5]: 5.63 ± 0.97 µM |
| CCCC#Cc1snc2cc(-c3ccc(OC)c(OC)c3)cnc12 [Compound 7a, 6-(3,4-Dimethoxyphenyl)-3-(pent-1-yn-1-yl)isothiazolo[4,3-b]pyridine] | 850 | fold less potent on PIKfyve relative to RMC-113 ([1]; ratio of IC50 values): 100 fold |
| COc1ccc(-c2cnc3c(C#Cc4ccccc4)snc3c2)cc1OC [Compound 7b, 6-(3,4-Dimethoxyphenyl)-3-(phenylethynyl)isothiazolo[4,3-b]pyridine] | 59 |  |
| COc1ccc(-c2cnc3c(C#Cc4ccc(F)cc4)snc3c2)cc1OC [Compound 7c, 6-(3,4-Dimethoxyphenyl)-3-((4-fluorophenyl)ethynyl)isothiazolo[4,3-b]pyridine] | 250 |  |
| COc1ccc(-c2cnc3c(C#Cc4cccc(Cl)c4)snc3c2)cc1OC [Compound 7d, 6-(3,4-Dimethoxyphenyl)-3-((3-chlorophenyl)ethynyl)isothiazolo[4,3-b]pyridine] | 39 |  |
| COc1cccc(C#Cc2snc3cc(-c4ccc(OC)c(OC)c4)cnc23)c1 [Compound 7f, 6-(3,4-Dimethoxyphenyl)-3-((3-methoxyphenyl)ethynyl)isothiazolo[4,3-b]pyridine] | 21 | EC50 [2]: 4.79 ± 0.24 µM; CC50 [3]: < 10 µM; VEEV (TC-83) CC50 [4]: >10 µM |
| COc1ccc(-c2cnc3c(C#Cc4ccc(C)nc4)snc3c2)cc1OC [Compound 7g, 6-(3,4-Dimethoxyphenyl)-3-((6-methylpyridin-3-yl)ethynyl)isothiazolo[4,3-b]pyridine] | 360 |  |
| COc1ccc(C#Cc2snc3cc(-c4ccc(OC)c(OC)c4)cnc23)cn1 [Compound 7h, 6-(3,4-Dimethoxyphenyl)-3-((6-methoxypyridin-3-yl)ethynyl)isothiazolo[4,3-b]pyridine] | 590 |  |
| COc1ccc(-c2cnc3c(C#Cc4ccc(F)nc4)snc3c2)cc1OC [Compound 7j, 6-(3,4-Dimethoxyphenyl)-3-((6-fluoropyridin-3-yl)ethynyl)isothiazolo[4,3-b]pyridine] | 120 |  |

| SMILES | IC50 ([1]; Tables 1-4 and text) [nM] | other results |
| --- | --- | --- |
| COc1ccc(-c2cnc3c(C#Cc4ccc(C(F)(F)F)nc4)snc3c2)cc1OC [Compound 7n, 6-(3,4-Dimethoxyphenyl)-3-((6-(trifluoromethyl)pyridin-3-yl)ethynyl)isothiazolo[4,3-b]pyridine] | 680 |  |
| CCOc1ncccc1C#Cc1snc2cc(-c3ccc(OC)c(OC)c3)cnc12 [Compound 7s, 6-(3,4-Dimethoxyphenyl)-3-((2-ethoxypyridin-3-yl)ethynyl)isothiazolo[4,3-b]pyridine] | 110 |  |
| COc1ccc(-c2cnc3c(C#Cc4cc(F)cnc4OC)snc3c2)cc1OC [Compound 7t, 6-(3,4-Dimethoxyphenyl)-3-((5-fluoro-2-methoxypyridin-3-yl)ethynyl)isothiazolo[4,3-b]pyridine] | > 10000 |  |
| COc1ccc(C#Cc2snc3cc(-c4ccc(OC)c(OC)c4)cnc23)c(OC)n1 [Compound 7u, 6-(3,4-Dimethoxyphenyl)-3-((2,6-dimethoxypyridin-3-yl)ethynyl)isothiazolo[4,3-b]pyridine] | 5670 |  |
| COc1ccc(-c2cnc3c(C#Cc4cc(C)cnc4F)snc3c2)cc1OC [Compound 7v, 6-(3,4-Dimethoxyphenyl)-3-((2-fluoro-5-methylpyridin-3-yl)ethynyl)isothiazolo[4,3-b]pyridine] | 42 |  |
| COc1ccc(-c2cnc3c(C#Cc4ccncc4)snc3c2)cc1OC [Compound 7x, 6-(3,4-Dimethoxyphenyl)-3-(pyridin-4-ylethynyl)isothiazolo[4,3-b]pyridine] | 75 |  |
| COc1ccc(-c2cnc3c(C#Cc4ccccn4)snc3c2)cc1OC [Compound 7y, 6-(3,4-Dimethoxyphenyl)-3-(pyridin-2-ylethynyl)isothiazolo[4,3-b]pyridine] | 30 |  |
| COc1ccc(-c2cnc3c(C#CCNC(=O)c4ccccc4)snc3c2)cc1OC [Compound 11a, N-(3-(6-(3,4-Dimethoxyphenyl)isothiazolo[4,3-b]pyridin-3-yl)prop-2-yn-1-yl)benzamide] | 2040 |  |
| COc1ccc(-c2cnc3c(C#CCNS(=O)(=O)c4ccccc4)snc3c2)cc1OC [Compound 11b, N-(3-(6-(3,4-Dimethoxyphenyl)isothiazolo[4,3-b]pyridin-3-yl)prop-2-yn-1-yl)benzenesulfonamide] | 1840 |  |
| COc1ccc(-c2cnc3c(C#CCNC(=O)Nc4ccccc4)snc3c2)cc1OC [Compound 11c, 1-(3-(6-(3,4-Dimethoxyphenyl)isothiazolo[4,3-b]pyridin-3-yl)prop-2-yn-1-yl)-3-phenylurea] | > 10000 |  |
| COc1ccc(-c2cnc3c(C#CCNc4ccccc4)snc3c2)cc1OC [Compound 13, N-(3-(6-(3,4-Dimethoxyphenyl)isothiazolo[4,3-b]pyridin-3-yl)prop-2-yn-1-yl)aniline] | 184 |  |
| COc1ccc(-c2cnc3c(NCc4cccnc4)snc3c2)cc1OC [Compound 15, 6-(3,4-Dimethoxyphenyl)-N-(pyridin-3-ylmethyl)isothiazolo[4,3-b]pyridin-3-amine] | > 10000 | PIKfyve inhibition in words [1]: practically inactive |
| COc1ccc(-c2cnc3c(-c4cccnc4)snc3c2)cc1OC [Compound 17, 6-(3,4-Dimethoxyphenyl)-3-(pyridin-3-yl)isothiazolo[4,3-b]pyridine] | 602 |  |
| COc1ccc(-c2cnc3c(NC(=O)c4cccnc4)snc3c2)cc1OC [Compound 20, N-(6-(3,4-Dimethoxyphenyl)isothiazolo[4,3-b]pyridin-3-yl)nicotinamide] | 4290 | PIKfyve inhibition in words [1]: practically inactive |
| COc1ccc(-c2cnc3c(CCc4cccnc4)snc3c2)cc1OC [Compound 22, 6-(3,4-Dimethoxyphenyl)-3-(2-(pyridin-3-yl)ethyl)isothiazolo[4,3-b]pyridine] | 33 |  |
| CO/C(=C\c1snc2cc(-c3ccc(OC)c(OC)c3)cnc12)c1cccnc1 [Compound 23a, (Z)-6-(3,4-Dimethoxyphenyl)-3-(2-methoxy-2-(pyridin-3-yl)vinyl)isothiazolo[4,3-b]pyridine] | 525 |  |
| COc1ccc(-c2cnc3c(/C=C(\OCCN(C)C)c4cccnc4)snc3c2)cc1OC [Compound 23b] | 309 |  |
| COc1ccc(-c2cnc3c(/C=C(/c4cccnc4)N4CCOCC4)snc3c2)cc1OC [Compound 23c, (Z)-4-(2-(6-(3,4-Dimethoxyphenyl)isothiazolo[4,3-b]pyridin-3-yl)-1-(pyridin-3-yl)vinyl)morpholine] | 613 |  |
| COc1ccc(-c2cnc3c(/C=C(\SCCO)c4cccnc4)snc3c2)cc1OC [Compound 23d, (Z)-2-((2-(6-(3,4-Dimethoxyphenyl)isothiazolo[4,3-b]pyridin-3-yl)-1-(pyridin-3-yl)vinyl)thio)ethan-1-ol] | 1540 |  |
